Columns and labels:
TYK2 [1] = target: T1, TYK2 (Homo sapiens, UniProt P29597); assay: TYK2 kinase ADP-Glo assay (Example 59); format: biochemical; details: for IC50: TYK2 (Invitrogen) 4 nM, ATP 10 μM, IRS1 0.03 mg/mL, 25° C. 60 min, read-out: IC50 (nM), TYK2 Experiment; for Hillslope, TYK2 Experiment: slope of the nonlinear IC50 fit
T1 construct: purchased Invitrogen PV4790
T1 sequence (P29597 833-1187 limits assumed): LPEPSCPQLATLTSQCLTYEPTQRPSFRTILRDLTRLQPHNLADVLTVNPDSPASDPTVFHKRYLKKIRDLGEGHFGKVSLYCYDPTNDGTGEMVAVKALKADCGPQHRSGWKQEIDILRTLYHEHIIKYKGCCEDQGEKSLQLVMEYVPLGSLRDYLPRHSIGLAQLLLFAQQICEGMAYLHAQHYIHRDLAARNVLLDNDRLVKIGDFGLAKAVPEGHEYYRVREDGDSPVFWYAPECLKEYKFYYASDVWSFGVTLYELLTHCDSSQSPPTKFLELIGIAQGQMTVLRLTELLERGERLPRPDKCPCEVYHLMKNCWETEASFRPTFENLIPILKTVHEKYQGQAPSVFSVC

JAK1 [2] = target: T2, JAK1 (Homo sapiens, UniProt P23458); assay: JAK1 kinase ADP-Glo assay (Example 59); format: biochemical; design: purchased Invitrogen PV4774; details: for IC50: JAK1 (Invitrogen) 4 nM, ATP 20 μM, IRS1 0.05 mg/mL, 25° C. 60 min, read-out: IC50 (nM), JAK1 Experiment; for Hillslope, JAK1 Experiment: slope of the nonlinear IC50 fit
Target sequence in this assay (P23458 866-1154 limits assumed): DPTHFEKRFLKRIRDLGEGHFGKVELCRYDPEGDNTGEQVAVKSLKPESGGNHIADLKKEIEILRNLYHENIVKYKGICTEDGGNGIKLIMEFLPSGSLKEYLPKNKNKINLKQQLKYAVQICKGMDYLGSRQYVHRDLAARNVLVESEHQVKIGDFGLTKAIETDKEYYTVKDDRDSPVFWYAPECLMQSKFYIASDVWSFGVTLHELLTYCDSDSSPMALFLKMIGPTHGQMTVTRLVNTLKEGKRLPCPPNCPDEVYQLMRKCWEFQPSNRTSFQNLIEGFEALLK

JAK3 [3] = target: T3, JAK3 (Homo sapiens, UniProt P52333); assay: JAK3 kinase ADP-Glo assay (Example 59); format: biochemical; design: purchased Invitrogen PV3855; details: for IC50: JAK3 (Invitrogen) 0.5 nM, ATP 10 μM, Poly (4:1 Glu, Tyr) 0.03 mg/mL, 25° C. 60 min, read-out: IC50 (nM), JAK3 Experiment; for Hillslope, JAK3 Experiment: slope of the nonlinear IC50 fit
Target sequence in this assay (P52333 781-1124 limits assumed): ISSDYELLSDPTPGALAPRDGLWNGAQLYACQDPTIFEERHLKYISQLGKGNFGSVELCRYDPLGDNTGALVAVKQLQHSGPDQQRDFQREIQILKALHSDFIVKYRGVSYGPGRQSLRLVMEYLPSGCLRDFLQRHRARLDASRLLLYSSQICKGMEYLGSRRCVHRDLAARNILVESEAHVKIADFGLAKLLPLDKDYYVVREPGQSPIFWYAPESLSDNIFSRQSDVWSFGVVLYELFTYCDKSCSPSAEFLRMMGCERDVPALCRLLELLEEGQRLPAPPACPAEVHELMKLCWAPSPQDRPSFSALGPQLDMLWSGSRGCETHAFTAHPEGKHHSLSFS

JAK2 [4] = target: T4, JAK2 (Homo sapiens, UniProt O60674); assay: JAK2 kinase ADP-Glo assay (Example 59); details: for Hillslope, JAK2 Experiment: Example 59, slope of the nonlinear IC50 fit
Target sequence in this assay (O60674 808-1132 limits assumed): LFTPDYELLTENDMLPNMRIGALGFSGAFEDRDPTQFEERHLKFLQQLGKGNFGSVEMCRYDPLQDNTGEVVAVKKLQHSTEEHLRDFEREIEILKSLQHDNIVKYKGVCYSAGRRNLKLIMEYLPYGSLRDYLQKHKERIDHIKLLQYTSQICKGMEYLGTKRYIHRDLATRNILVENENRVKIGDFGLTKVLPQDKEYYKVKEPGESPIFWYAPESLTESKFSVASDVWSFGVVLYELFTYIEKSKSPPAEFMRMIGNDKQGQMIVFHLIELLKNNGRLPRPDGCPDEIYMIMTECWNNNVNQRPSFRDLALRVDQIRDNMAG

[5] = system: itching caused by allergic dermatitis; details: cited from earlier work
[6] = in vivo; cited from earlier work
JAK1 [7] = target: T2, JAK1; assay: JAK1 kinase ADP-Glo assay (Example 60)
Target sequence in this assay (P23458 850-1154 limits assumed): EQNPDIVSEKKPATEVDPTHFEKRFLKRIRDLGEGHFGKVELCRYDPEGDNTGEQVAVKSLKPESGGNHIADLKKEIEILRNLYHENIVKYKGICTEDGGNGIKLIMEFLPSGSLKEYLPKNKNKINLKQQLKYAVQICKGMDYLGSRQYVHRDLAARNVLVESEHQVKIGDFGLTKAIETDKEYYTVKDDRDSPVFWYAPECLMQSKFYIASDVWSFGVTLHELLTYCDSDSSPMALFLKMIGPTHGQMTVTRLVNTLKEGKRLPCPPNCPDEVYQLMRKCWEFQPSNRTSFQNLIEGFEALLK

JAK2 [8] = target: T4, JAK2; assay: JAK2 kinase ADP-Glo assay (Example 60)
Target sequence in this assay (O60674 826-1132 limits assumed): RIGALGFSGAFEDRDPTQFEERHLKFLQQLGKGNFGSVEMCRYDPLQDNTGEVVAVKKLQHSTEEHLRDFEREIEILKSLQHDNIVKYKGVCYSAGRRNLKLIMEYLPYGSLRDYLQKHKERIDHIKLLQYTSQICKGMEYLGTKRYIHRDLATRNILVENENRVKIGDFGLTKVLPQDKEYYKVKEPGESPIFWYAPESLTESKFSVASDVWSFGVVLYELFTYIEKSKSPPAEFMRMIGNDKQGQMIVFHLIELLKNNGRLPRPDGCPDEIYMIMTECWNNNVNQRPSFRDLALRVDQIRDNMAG

JAK3 [9] = target: T3, JAK3; assay: JAK3 kinase ADP-Glo assay (Example 60)
Target sequence in this assay (P52333 795-1124 limits assumed): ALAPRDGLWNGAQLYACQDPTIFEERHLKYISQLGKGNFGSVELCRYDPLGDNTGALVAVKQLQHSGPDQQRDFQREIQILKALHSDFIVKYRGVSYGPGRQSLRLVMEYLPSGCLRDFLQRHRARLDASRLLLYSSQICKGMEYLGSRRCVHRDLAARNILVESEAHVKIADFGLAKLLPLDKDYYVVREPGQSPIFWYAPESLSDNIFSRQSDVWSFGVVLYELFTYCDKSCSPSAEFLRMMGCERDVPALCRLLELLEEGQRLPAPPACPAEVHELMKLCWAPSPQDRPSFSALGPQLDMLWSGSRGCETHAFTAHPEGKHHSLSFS

TYK2 [10] = target: T5, TYK2 (Homo sapiens, UniProt P29597); assay: TYK2 kinase ADP-Glo assay (Example 60)
T5 sequence (P29597 871-1187 limits assumed): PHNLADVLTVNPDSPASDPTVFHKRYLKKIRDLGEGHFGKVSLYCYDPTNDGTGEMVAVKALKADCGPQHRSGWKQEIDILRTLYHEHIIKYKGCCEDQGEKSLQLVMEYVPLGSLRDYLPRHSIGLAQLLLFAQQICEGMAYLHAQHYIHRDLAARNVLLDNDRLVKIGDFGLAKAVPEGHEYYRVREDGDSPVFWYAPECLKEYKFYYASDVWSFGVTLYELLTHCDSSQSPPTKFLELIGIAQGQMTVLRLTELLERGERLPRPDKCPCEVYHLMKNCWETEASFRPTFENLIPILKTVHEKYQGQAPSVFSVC

Compound | IC50 (TYK2 [1]) | IC50 (JAK1 [2]) | IC50 (JAK3 [3]) | IC50 (JAK2 [4]) | also measured
CCc1cc(O)ccc1-c1ccc2c(-c3nc4c([nH]3)CN(C(=O)c3cnc(N5CCN(C)CC5)cn3)C4)n[nH]c2c1 [MDI-205, (2-(6-(2-ethyl-4-hydroxyphenyl)-1H-indazol-3-yl)pyrrolo[3,4-d]imidazol-5(1H,4H,6H)-yl)(5-(4-methylpiperazin-1-yl)pyrazin-2-yl)ketone] | 0.194 nM | 0.121 nM | 0.178 nM | 0.158 nM | –
CNS(=O)(=O)C[C@H]1CC[C@H](N(C)c2ncnc3[nH]ccc23)CC1 [Olatinib] | – | – | – | – | experimental animals (dogs) that alleviated the itching response by more than 50% ([5]; on the 7th day): more than 70%; time to relieve itching during the treatment ([5]; oral administration of 0.4-0.6 mg/kg twice a day): ≤ 24 h
CCc1cc(O)c(F)cc1-c1ccc2c(-c3nc4c([nH]3)CN(C(=O)c3cnc(N5CCCCC5)cn3)C4)n[nH]c2c1 [MDI-2, (2-(6-(2-ethyl-5-fluoro-4-hydroxyphenyl)-1H-indazol-3-yl)-4,6-dihydropyrrolo[3,4-d]imidazol-5(1H)-yl)(5-(piperidin-1-yl)pyrazin-2-yl)ketone] | 1.63 nM | 0.806 nM | 0.765 nM | 0.772 nM | –
CCc1cc(O)c(F)cc1-c1ccc2c(-c3nc4c([nH]3)CN(C(=O)c3cnn(C)c3)C4)n[nH]c2c1 [MDI-202, (2-(6-(2-ethyl-5-fluoro-4-hydroxyphenyl)-1H-indazol-3-yl)-4,6-dihydropyrrolo[3,4-d]imidazol-5(1H)-yl)(1-methyl-1H-pyrazol-4-yl)ketone] | 0.318 nM | 0.125 nM | 0.16 nM | 0.279 nM | –
O=C(Nc1nc2cccc(-c3ccc(CN4CCS(=O)(=O)CC4)cc3)n2n1)C1CC1 [Filgotinib, reference compound] | – | – | – | – | Hillslope, TYK2 Experiment (TYK2 [1]): 1.037; Hillslope, JAK1 Experiment (JAK1 [2]): 1.067; Hillslope, JAK3 Experiment (JAK3 [3]): 1.318; Hillslope, JAK2 Experiment (JAK2 [4]): 1.142
N#CC[C@H](C1CCCC1)n1cc(-c2ncnc3[nH]ccc23)cn1 [Ruxolitinib] | – | – | – | – | incidence of the most common hematological adverse effects (low platelet counts and anemia) [6]: > 20%; incidence of the most common non-hematological adverse effects (ecchymosis, dizziness and headache) [6]: > 10%
CCc1cc(O)c(F)cc1-c1ccc2c(-c3nc4c([nH]3)CN(C(=O)c3cnc(N5CCN(C)CC5)cn3)C4)n[nH]c2c1 [MDI-204, (2-(6-(2-ethyl-5-fluoro-4-hydroxyphenyl)-1H-indazol-3-yl)pyrrolo[3,4-d]imidazol-5(1H,4H,6H)-yl)(5-(4-methylpiperazin-1-yl)pyrazin-2-yl)ketone] | 0.2 nM | 0.152 nM | 0.238 nM | 0.176 nM | –
CCc1cc(O)c(F)cc1-c1ccc2c(-c3nc4c([nH]3)CN(C(=O)c3cnc(N5CCOCC5)cn3)C4)n[nH]c2c1 [MDI-201, (2-(6-(2-ethyl-5-fluoro-4-hydroxyphenyl)-1H-indazol-3-yl)-4,6-dihydropyrrolo[3,4-d]imidazol-5(1H)-yl)(5-morpholinepyrazin-2-yl)ketone] | 0.281 nM | 0.138 nM | 0.187 nM | 0.217 nM | Hillslope, TYK2 Experiment (TYK2 [1]): 1.411; Hillslope, JAK1 Experiment (JAK1 [2]): 3.487; Hillslope, JAK3 Experiment (JAK3 [3]): 1.989; Hillslope, JAK2 Experiment (JAK2 [4]): 1.633
CCc1cc(O)c(F)cc1-c1ccc2c(-c3nc4c([nH]3)CN(C(=O)C3CCN(C)CC3)C4)n[nH]c2c1 [MDI-203, (2-(6-(2-ethyl-5-fluoro-4-hydroxyphenyl)-1H-indazol-3-yl)pyrrolo[3,4-d]imidazol-5(1H, 4H,6H)-yl)(1-methylpiperidin-4-yl)ketone] | 0.328 nM | 0.16 nM | 0.212 nM | 0.208 nM | –
CCc1cc(O)c(F)cc1-c1ccc2c(-c3nc4c([nH]3)CN(S(=O)(=O)C3CCCC3)C4)n[nH]c2c1 [MDI-220, 4-(3-(5-(cyclopentylsulfonyl)-1,4,5,6-tetrahydropyrrolo[3,4-d]imidazol-2-yl)-1H-indazol-6-yl)-5-ethyl-2-fluorophenol] | – | – | – | – | IC50 (JAK1 [7]): 2.02 nM; IC50 (JAK2 [8]): 1.38 nM; IC50 (JAK3 [9]): 3.15 nM; IC50 (TYK2 [10]): 5.56 nM
CCOC(=O)N1Cc2nc(-c3n[nH]c4cc(-c5cc(F)c(O)cc5CC)ccc34)[nH]c2C1 [MDI-253, Ethyl 2-(6-(2-ethyl-5-fluoro-4-hydroxyphenyl)-1H-indazol-3-yl)-4,6-dihydropyrrolo[3,4-d]imidazol-5(1H)-carboxylate] | – | – | – | – | IC50 (JAK1 [7]): 2.9 nM; IC50 (JAK2 [8]): 1.6 nM; IC50 (JAK3 [9]): 1.5 nM; IC50 (TYK2 [10]): 31 nM
CCc1cc(O)c(F)cc1-c1ccc2c(-c3nc4c([nH]3)CN(Cc3cnn(C)c3)C4)n[nH]c2c1 [MDI-221, 5-ethyl-2-fluoro-4-(3-(5-((1-methyl-1H-pyrazol-4-yl)methyl)-1,4,5,6-tetrahydropyrrolo[3,4-d]imidazol-2-yl)-1H-indazol-6-yl)phenol] | – | – | – | – | IC50 (JAK1 [7]): 0.128 nM; IC50 (JAK2 [8]): 0.363 nM; IC50 (JAK3 [9]): 0.379 nM; IC50 (TYK2 [10]): 7.6 nM
CCc1cc(O)c(F)cc1-c1ccc2c(-c3nc4c([nH]3)CN(C(=O)N3CCC(O)CC3)C4)n[nH]c2c1 [MDI-245, (2-(6-(2-ethyl-5-fluoro-4-hydroxyphenyl)-1H-indazol-3-yl)-4,6-dihydropyrrolo[3,4-d]imidazol-5(1H)-yl)(4-hydroxylpiperidin-1-yl)ketone] | – | – | – | – | IC50 (JAK1 [7]): 0.178 nM; IC50 (JAK2 [8]): 0.648 nM; IC50 (JAK3 [9]): 0.306 nM; IC50 (TYK2 [10]): 0.365 nM

Continued, in another order:

IC50 (TYK2 [1]) | IC50 (JAK1 [2]) | IC50 (JAK3 [3]) | IC50 (JAK2 [4]) | Compound | also measured
0.146 nM | 0.146 nM | 0.116 nM | 0.166 nM | CCc1cc(O)c(F)cc1-c1ccc2c(-c3nc4c([nH]3)CN(C(=O)C3CC(O)C3)C4)n[nH]c2c1 (stereo not shown) [MDI-213, (2-(6-(2-ethyl-5-fluoro-4-hydroxyphenyl)-1H-indazol-3-yl)pyrrolo[3,4-d]imidazol-5(1H,4H,6H)-yl)(3-hydroxylcyclobutyl)ketone] | –
7.23 nM | 0.943 nM | 0.628 nM | 0.556 nM | CCc1cc(O)c(F)cc1-c1ccc2c(-c3nc4c([nH]3)CN(S(=O)(=O)c3ccccc3)C4)n[nH]c2c1 [MDI-206, 5-ethyl-2-fluoro-4-(3-(5-(benzenesulfonyl)-1,4,5,6-tetrahydropyrrolo[3,4-d]imidazol-2-yl)-1H-indazol-6-yl)phenol] | Hillslope, TYK2 Experiment (TYK2 [1]): 0.744; Hillslope, JAK1 Experiment (JAK1 [2]): 1.091; Hillslope, JAK3 Experiment (JAK3 [3]): 1.216; Hillslope, JAK2 Experiment (JAK2 [4]): 1.457
0.474 nM | 0.12 nM | 0.132 nM | 0.16 nM | CCc1cc(O)c(F)cc1-c1ccc2c(-c3nc4c([nH]3)CN(Cc3cnccn3)C4)n[nH]c2c1 [MDI-207, 5-ethyl-2-fluoro-4-(3-(5-(pyrazin-2ylmethyl)-1,4,5,6-tetrahydropyrrolo[3,4-d]imidazol-2-yl)-1H-indazol-6-yl)phenol] | –
0.266 nM | 0.162 nM | 0.16 nM | 0.198 nM | CCc1cc(O)c(F)cc1-c1ccc2c(-c3nc4c([nH]3)CN(C(=O)C3CCC3)C4)n[nH]c2c1 [MDI-211, cyclobutyl (2-(6-(2-ethyl-5-fluoro-4-hydroxyphenyl)-1H-indazol-3-yl)pyrrolo[3,4-d]imidazol-5(1H, 4H,6H)-yl)ketone] | –
0.281 nM | 0.128 nM | 0.158 nM | 0.165 nM | CCc1cc(O)c(F)cc1-c1ccc2c(-c3nc4c([nH]3)CN(C(=O)C3CC3)C4)n[nH]c2c1 [MDI-209, cyclopropyl (2-(6-(2-ethyl-5-fluoro-4-hydroxyphenyl)-1H-indazol-3-yl)pyrrolo[3,4-d]imidazol-5(1H, 4H,6H)-yl)ketone] | –
0.391 nM | 0.122 nM | 0.137 nM | – | CCc1cc(O)c(F)cc1-c1ccc2c(-c3nc4c([nH]3)CN(C3CCC(O)CC3)C4)n[nH]c2c1 (stereo not shown) [MDI-217, 5-ethyl-2-fluoro-4-(3-(5-(4-hydroxylcyclohexyl)-1,4,5,6-tetrahydropyrrolo[3,4-d]imidazol-2-yl)-1H-indazol-6-yl)phenol] | –

Source: patent US12180215B2, “Substituted pyrrolo[3,4-d]imidazoles as JAK inhibitors” (HENAN MEDINNO PHARMACEUTICAL TECHNOLOGY CO., LTD., priority 2019, dated 2024)
